How the values were obtained:
H3K56ac = H3K56ac levels in E14 mouse embryonic stem cells, quantitative western blot; format: cell-based; settings: E14 mES cells, 24 h; CI-994 40 μM, Panobinostat 30 nM
Experimental: The inventors proceeded to assess their compounds effects on HDAC activity in cells.
To examine the ability of PROTACs 1-4 to reduce HDAC1, 2 and 3 activity in cells they began by measuring H3K56ac using quantitative western blotting (see FIG. 3B).
(§1) HCT116 or mES cells were treated 24 hours after seeding. 24 hours post treatment, cells were harvested, lysed in lysis buffer (50 mM Tris-HCl, 150 mM NaCl, 0.5% NP-40, 0.5% Triton X-100) with protease inhibitor (Sigma, P8340), then incubated on ice for 30 minutes, before being centrifuged (18,000 ref, 15 minutes, 4° C.). The supernatant was collected, and protein concentrations quantified via Bradford Assay using Protein Assay Dye Reagent Concentrate (BIO-RAD). For histone extraction, an equal volume of 0.4 N H2SO4 was added to the pellets and the extracts placed at 4° C. overnight. Following overnight incubation, the tubes were centrifuged (18,000 ref, 15 minutes, 4° C.) and then the supernatant (histone extract) collected.
(§2) Western blots were run on NuPAGE™ 4-12% Bis-Tris gels with 20-30 μg of protein or 10 μL of acid-extracted histone loaded per lane, using NuPAGE™ LDS Sample Buffer (4×). PageRuler™ Plus Prestained Ladder was used for size standards. After gel electrophoresis at 140V for 75-90 minutes the separated proteins were transferred onto nitrocellulose membrane at 30V for 60 minutes. The membranes were probed with primary antibodies (listed below) for 60-90 minutes. Blots were developed with complimentary IRDye conjugated secondary antibodies and the bands visualised using the Odyssey Infrared Imaging System. Image processing and band intensity quantification was performed using Image Studio Lite.

HDAC1 = target: T1, HDAC1 (Homo sapiens, UniProt Q13547); assay: HDAC1 degradation in HCT116 cells, quantitative western blot; format: cell-based; settings: for Dmax: HCT-116, 24 h, HCT116, screened at 0.1, 1 and 10 μM, maximum degradation irrespective of concentration, read-out: HDAC1 Degrader (% Degradation)
T1 construct: endogenous in cells; host or cells: HCT116
Experimental: (§3) The compounds were screened at 0.1 μM, 1 μM and 10 μM in a HCT116 cell line. The maximum degradation observed irrespective of the concertation was recorded. The screening of the new compounds was done in 6-well plates, 5 mL media, with 400,000 cells per well to increase throughput.
as §1
as §2, with “PageRuler™” for “Western blots were run on NuPAGE™ 4-12% Bis-Tris gels with 20-30 μg of protein or 10 μL of acid-extracted histone loaded per lane, using NuPAGE™ LDS Sample Buffer (4×). PageRuler™”

HDAC2 = target: T2, HDAC2 (Homo sapiens, UniProt Q92769); assay: HDAC2 degradation in HCT116 cells, quantitative western blot; format: cell-based; settings: for HDAC 2 Degrader (% Degradation) / Dmax: HCT116, screened at 0.1, 1 and 10 μM, maximum degradation irrespective of concentration; for Dmax: HCT-116, 24 h, read-out: HDAC 2 Degrader (% Degradation)
T2 construct: endogenous in cells; host or cells: HCT116
Experimental: as §3, §1
as §2, with “PageRuler™” for “Western blots were run on NuPAGE™ 4-12% Bis-Tris gels with 20-30 μg of protein or 10 μL of acid-extracted histone loaded per lane, using NuPAGE™ LDS Sample Buffer (4×). PageRuler™”

CoREST = CoREST (Homo sapiens, UniProt Q13547); assay: HDAC inhibition assay, CoREST complex (Table 1, run under different conditions); format: biochemical; settings: Table 1 conditions (differ from FIG. 3)
Experimental: Inhibition tests against LSD1-HDAC-CoREST complex were performed using a two-enzyme fluorescence-based HDAC assay. The inhibitor/PROTACs were dissolved at 50 mM in DMSO, then 1:2 serial dilutions performed using HDAC assay buffer (50 mM Tris pH 7.5, 150 mM NaCl) to afford range of concentrations.
The assays were performed in black 96-well plates with a reaction volume of 50 μL per well. All determinations were performed in triplicate. […] After an incubation of 20 minutes at 37° C. and 150 rpm, deacetylation was stopped by the addition of 50 μL of a developing solution containing trypsin (50 mM Tris pH 7.5, 100 mM NaCl, 10 mg/mL trypsin). […] HDAC Activity was calculated by subtracting the average blank fluorescence from the well fluorescence. Graphpad Prism software was utilised to determine IC50 values.

NuRD = NuRD (Homo sapiens, UniProt Q13547); assay: HDAC inhibition assay, NuRD complex (Table 1); format: biochemical
MiDAC = MiDAC (Homo sapiens, UniProt Q13547); assay: HDAC inhibition assay, MiDAC complex (Table 1); format: biochemical
HDAC3 = target: T3, HDAC3 (Homo sapiens, UniProt O15379); assay: HDAC3 degradation in HCT116 cells, quantitative western blot; format: cell-based; settings: HCT-116, 24 h; HCT116, screened at 0.1, 1 and 10 μM; maximum degradation irrespective of concentration; read-out: HDAC 3 degrader (% Degradation)
T3 construct: endogenous in cells; host or cells: HCT116
Experimental: as §3, §1
as §2, with “PageRuler™” for “Western blots were run on NuPAGE™ 4-12% Bis-Tris gels with 20-30 μg of protein or 10 μL of acid-extracted histone loaded per lane, using NuPAGE™ LDS Sample Buffer (4×). PageRuler™”

[1] = HCT116, side by side with PROTAC 4, FIG. 4C

T3 sequence (O15379 whole entry): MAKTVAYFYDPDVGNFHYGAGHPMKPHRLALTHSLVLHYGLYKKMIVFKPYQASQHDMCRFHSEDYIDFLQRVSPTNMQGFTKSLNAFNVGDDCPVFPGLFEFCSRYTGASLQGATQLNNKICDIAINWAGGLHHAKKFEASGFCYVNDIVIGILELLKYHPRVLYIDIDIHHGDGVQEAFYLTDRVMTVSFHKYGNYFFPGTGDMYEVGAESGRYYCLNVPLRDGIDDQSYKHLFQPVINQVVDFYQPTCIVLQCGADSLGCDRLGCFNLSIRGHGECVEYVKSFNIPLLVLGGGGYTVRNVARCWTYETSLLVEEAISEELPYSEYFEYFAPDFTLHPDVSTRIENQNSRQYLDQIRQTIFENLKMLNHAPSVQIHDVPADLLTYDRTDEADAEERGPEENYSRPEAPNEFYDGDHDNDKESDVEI
T2 sequence (Q92769 whole entry): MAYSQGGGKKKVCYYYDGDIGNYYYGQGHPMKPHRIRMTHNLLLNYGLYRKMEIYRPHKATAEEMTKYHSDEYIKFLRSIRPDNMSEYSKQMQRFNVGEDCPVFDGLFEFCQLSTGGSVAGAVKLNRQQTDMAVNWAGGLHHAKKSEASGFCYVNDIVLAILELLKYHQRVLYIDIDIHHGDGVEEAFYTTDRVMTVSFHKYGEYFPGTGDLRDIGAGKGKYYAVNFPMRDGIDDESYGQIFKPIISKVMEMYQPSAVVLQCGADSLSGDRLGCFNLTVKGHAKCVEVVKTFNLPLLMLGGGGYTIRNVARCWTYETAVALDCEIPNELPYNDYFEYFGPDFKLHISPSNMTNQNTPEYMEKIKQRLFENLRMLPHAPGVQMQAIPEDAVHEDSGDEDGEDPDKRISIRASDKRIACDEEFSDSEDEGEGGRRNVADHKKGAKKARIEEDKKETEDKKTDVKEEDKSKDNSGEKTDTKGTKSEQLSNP
Chain of NuRD (Q13547 whole entry): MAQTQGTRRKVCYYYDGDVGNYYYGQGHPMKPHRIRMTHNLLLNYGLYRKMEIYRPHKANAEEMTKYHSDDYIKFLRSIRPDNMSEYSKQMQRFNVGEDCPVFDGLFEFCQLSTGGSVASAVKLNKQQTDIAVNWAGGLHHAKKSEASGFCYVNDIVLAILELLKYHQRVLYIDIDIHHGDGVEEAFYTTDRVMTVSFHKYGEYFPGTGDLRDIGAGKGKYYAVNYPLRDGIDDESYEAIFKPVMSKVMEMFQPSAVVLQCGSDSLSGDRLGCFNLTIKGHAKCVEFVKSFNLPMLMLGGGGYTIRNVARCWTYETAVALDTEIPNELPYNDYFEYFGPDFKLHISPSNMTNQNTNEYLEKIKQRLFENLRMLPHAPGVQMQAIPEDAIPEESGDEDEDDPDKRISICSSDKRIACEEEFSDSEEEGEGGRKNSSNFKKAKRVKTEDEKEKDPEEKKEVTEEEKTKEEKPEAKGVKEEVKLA
Chain of NuRD (Q13330 162-546 partner limits assumed): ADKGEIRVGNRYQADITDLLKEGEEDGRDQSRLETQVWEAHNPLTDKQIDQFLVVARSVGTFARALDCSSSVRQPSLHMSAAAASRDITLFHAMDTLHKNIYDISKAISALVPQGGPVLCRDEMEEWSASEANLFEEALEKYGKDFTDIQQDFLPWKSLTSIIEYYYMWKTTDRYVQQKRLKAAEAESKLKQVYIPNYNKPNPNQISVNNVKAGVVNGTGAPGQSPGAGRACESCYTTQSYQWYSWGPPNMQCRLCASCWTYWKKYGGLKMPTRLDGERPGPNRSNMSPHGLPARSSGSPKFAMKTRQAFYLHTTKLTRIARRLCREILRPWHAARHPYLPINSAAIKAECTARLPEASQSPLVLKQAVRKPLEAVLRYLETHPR
Chain of NuRD (Q09028 whole entry partner): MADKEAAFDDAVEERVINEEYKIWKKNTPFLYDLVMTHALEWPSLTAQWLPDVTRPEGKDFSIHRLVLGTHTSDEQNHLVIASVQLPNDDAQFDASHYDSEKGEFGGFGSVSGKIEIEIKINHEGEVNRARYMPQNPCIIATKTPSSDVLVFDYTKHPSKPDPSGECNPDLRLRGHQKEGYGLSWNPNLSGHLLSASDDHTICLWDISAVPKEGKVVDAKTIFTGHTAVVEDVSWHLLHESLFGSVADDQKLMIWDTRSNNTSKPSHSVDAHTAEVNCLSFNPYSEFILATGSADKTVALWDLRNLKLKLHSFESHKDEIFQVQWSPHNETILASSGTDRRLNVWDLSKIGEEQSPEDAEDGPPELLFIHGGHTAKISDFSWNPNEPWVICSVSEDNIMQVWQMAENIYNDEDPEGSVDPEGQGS
T1 sequence (Q13547 whole entry): as the sequence (Q13547 whole entry) above
Chain of CoREST (Q13547 whole entry, other chains not shown): as the sequence (Q13547 whole entry) above
Chain of CoREST (Q9UKL0 86-485 partner limits assumed, other chains not shown): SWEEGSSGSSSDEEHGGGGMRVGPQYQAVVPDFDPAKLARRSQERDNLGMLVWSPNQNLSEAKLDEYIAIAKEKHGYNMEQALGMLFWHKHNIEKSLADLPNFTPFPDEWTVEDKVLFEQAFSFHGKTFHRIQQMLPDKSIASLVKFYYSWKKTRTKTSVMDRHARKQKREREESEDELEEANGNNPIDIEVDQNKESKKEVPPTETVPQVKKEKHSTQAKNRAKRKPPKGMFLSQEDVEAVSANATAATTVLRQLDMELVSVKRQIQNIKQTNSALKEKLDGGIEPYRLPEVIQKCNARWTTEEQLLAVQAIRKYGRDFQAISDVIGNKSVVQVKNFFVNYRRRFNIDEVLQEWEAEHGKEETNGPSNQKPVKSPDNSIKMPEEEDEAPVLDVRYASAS
Chain of MiDAC (Q13547 whole entry): as the sequence (Q13547 whole entry) above
Chain of MiDAC (Q6PJG2 628-887 partner limits assumed): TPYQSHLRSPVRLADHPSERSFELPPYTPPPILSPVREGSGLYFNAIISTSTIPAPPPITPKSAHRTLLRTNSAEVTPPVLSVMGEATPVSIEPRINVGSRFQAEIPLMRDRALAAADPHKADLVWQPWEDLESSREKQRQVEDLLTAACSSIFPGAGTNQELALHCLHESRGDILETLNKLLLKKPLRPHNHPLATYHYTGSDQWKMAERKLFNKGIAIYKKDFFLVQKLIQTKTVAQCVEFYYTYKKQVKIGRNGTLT
Chain of MiDAC (Q9H147 whole entry partner): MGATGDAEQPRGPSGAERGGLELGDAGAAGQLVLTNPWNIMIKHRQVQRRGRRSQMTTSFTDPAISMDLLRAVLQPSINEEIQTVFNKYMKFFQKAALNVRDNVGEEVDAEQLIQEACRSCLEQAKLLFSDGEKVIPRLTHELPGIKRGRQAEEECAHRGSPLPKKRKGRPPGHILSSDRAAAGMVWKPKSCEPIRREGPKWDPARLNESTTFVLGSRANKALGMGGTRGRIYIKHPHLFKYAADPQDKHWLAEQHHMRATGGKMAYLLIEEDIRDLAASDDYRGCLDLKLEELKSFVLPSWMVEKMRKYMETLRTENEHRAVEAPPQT

Row | Dmax (HDAC1) [%] | Dmax (HDAC2) [%] | Dmax (HDAC3) [%] | Structure (SMILES) | also measured
1 | 60 | – | – | Cc1ncsc1-c1ccc(CNC(=O)[C@@H]2C[C@@H](O)CN2C(=O)[C@@H](NC(=O)CCCCCCCC(=O)Nc2ccc(C(=O)Nc3ccccc3N)cc2)C(C)(C)C)cc1 [PROTAC6, N1-(4-((2-aminophenyl)carbamoyl)phenyl)-N9-((S)-1-((2S,4R)-4-hydroxy-2-((4-(4-methylthiazol-5-yl)benzyl)carbamoyl)pyrrolidin-1-yl)-3,3-dimethyl-1-oxobutan-2-yl)nonanediamide] | IC50 (CoREST): 0.244 µM; IC50 (NuRD): 0.338 µM; IC50 (MiDAC): 1.69 µM; HDAC 2 Degrader (% Degradation) (HDAC2): partial
2 | 42 | 46 | 32 | Cc1ncsc1-c1ccc(CNC(=O)[C@@H]2C[C@@H](O)CN2C(=O)[C@@H](NC(=O)COCCCCCCOCC(=O)Nc2ccc(C(=O)Nc3ccccc3N)cc2)C(C)(C)C)cc1 [PROTAC12, (2S,4R)-1-((S)-2-(2-((6-(2-((4-((2-aminophenyl)carbamoyl)phenyl)amino)-2-oxoethoxy)hexyl)oxy)acetamido)-3,3-dimethylbutanoyl)-4-hydroxy-N-(4-(4-methylthiazol-5-yl)benzyl)pyrrolidine-2-carboxamide] | IC50 (CoREST): 7.17 µM; IC50 (NuRD): 8.13 µM; IC50 (MiDAC): 5.15 µM
3 | 67 | 58 | 67 | Cc1ncsc1-c1ccc(CNC(=O)[C@@H]2C[C@@H](O)CN2C(=O)[C@@H](NC(=O)COCCCCCCCCCOCC(=O)Nc2ccc(C(=O)Nc3ccccc3N)cc2)C(C)(C)C)cc1 [PROTAC16, (2S,4R)-1-((S)-2-(2-((9-(2-((4-((2-aminophenyl)carbamoyl)phenyl)amino)-2-oxoethoxy)nonyl)oxy)acetamido)-3,3-dimethylbutanoyl)-4-hydroxy-N-(4-(4-methylthiazol-5-yl)benzyl)pyrrolidine-2-carboxamide] | IC50 (CoREST): 4.13 µM; IC50 (NuRD): 11.8 µM

More lines, now with the values behind:

Row | Structure (SMILES) | Dmax (HDAC1) [%] | Dmax (HDAC2) [%] | Dmax (HDAC3) [%] | also measured
4 | CC(=O)Nc1ccc(C(=O)Nc2ccccc2N)cc1 [CI-994, 4-acetamido-N-(2-aminophenyl)benzamide, reference compound] | – | – | – | H3K56 acetylation level (H3K56ac): increased
5 | Cc1ncsc1-c1ccc(CNC(=O)[C@@H]2C[C@H](O)CN2C(=O)[C@@H](NC(=O)CCCCCCCCCCC(=O)Nc2ccc(C(=O)Nc3ccccc3N)cc2)C(C)(C)C)cc1 [NC-PROTAC4, N1-(4-((2-aminophenyl)carbamoyl)phenyl)-N12-((S)-1-((2S,4S)-4-hydroxy-2-((4-(4-methylthiazol-5-yl)benzyl)carbamoyl)pyrrolidin-1-yl)-3,3-dimethyl-1-oxobutan-2-yl)dodecanediamide] | – | – | – | HDAC1 degradation (HDAC1; [1]): No degradation; HDAC2 degradation (HDAC2; [1]): No degradation
6 | Nc1ccccc1NC(=O)c1ccc(NC(=O)CCCCCCCCCCCNC(=O)COc2cccc3c2C(=O)N(C2CCC(=O)NC2=O)C3=O)cc1 (centres unmarked) [PROTAC2, N-(2-aminophenyl)-4-(12-(2-((2-(2,6-dioxopiperidin-3-yl)-1,3-dioxoisoindolin-4-yl)oxy)acetamido)dodecanamido)benzamide] | – | – | – | H3K56 acetylation level (H3K56ac): increase in acetylation to similar levels
7 | Cc1ncsc1-c1ccc(CNC(=O)[C@@H]2C[C@@H](O)CN2C(=O)[C@@H](NC(=O)COCCOCCOCC(=O)Nc2ccc(C(=O)Nc3cc(-c4cccs4)ccc3N)cc2)C(C)(C)C)cc1 [PROTAC22, (2S,4R)-1-((S)-14-((4-((2-amino-5-(thiophen-2-yl)phenyl)carbamoyl)phenyl)amino)-2-(tert-butyl)-4,14-dioxo-6,9,12-trioxa-3-azatetradecanoyl)-4-hydroxy-N-(4-(4-methylthiazol-5-yl)benzyl)pyrrolidine-2-carboxamide] | 32 | – | 32 | HDAC 2 Degrader (% Degradation) (HDAC2): No
8 | CN[C@@H](C)C(=O)N[C@H](C(=O)N1C[C@@H](NC(=O)CCCCCCCCCCC(=O)Nc2ccc(C(=O)Nc3ccccc3N)cc2)C[C@H]1C(=O)N[C@@H]1CCCc2ccccc21)C1CCCCC1 [PROTAC26, N^1-(4-((2-aminophenyl)carbamoyl)phenyl)-N^12-((3S,5S)-1-((S)-2-cyclohexyl-2-((S)-2-(methylamino)propanamido)acetyl)-5-(((R)-1,2,3,4-tetrahydronaphthalen-1-yl)carbamoyl)pyrrolidin-3-yl) dodecanediamide] | 88 | 58 | 88 | –
9 | Cc1ncsc1-c1ccc(CNC(=O)[C@@H]2C[C@@H](O)CN2C(=O)[C@@H](NC(=O)CCCCCCCn2cc(COC(=O)NCc3ccc(C(=O)Nc4ccccc4N)cc3)nn2)C(C)(C)C)cc1 [PROTAC29, (1-(8-(((S)-1-((2S,4R)-4-hydroxy-2-((4-(4-methylthiazol-5-yl)benzyl)carbamoyl)pyrrolidin-1-yl)-3,3-dimethyl-1-oxobutan-2-yl)amino)-8-oxooctyl)-1H-1,2,3-triazol-4-yl)methyl(4-((2-aminophenyl)carbamoyl)benzyl)carbamate] | 39 | 23 | 64 | –
10 | Cc1ncsc1-c1ccc(CNC(=O)[C@@H]2C[C@@H](O)CN2C(=O)[C@@H](NC(=O)CCCCCCCCCCCCC(=O)Nc2ccc(C(=O)Nc3ccccc3N)cc2)C(C)(C)C)cc1 [PROTAC34, N1-(4-((2-aminophenyl)carbamoyl)phenyl)-N14-((S)-1-((2S,4R)-4-hydroxy-2-((4-(4-methylthiazol-5-yl)benzyl)carbamoyl)pyrrolidin-1-yl)-3,3-dimethyl-1-oxobutan-2-yl)tetradecanediamide] | 47 | 44 | 30 | –
11 | CC(=O)N[C@H](C(=O)N1C[C@H](O)C[C@H]1C(=O)NCc1ccc(-c2scnc2C)cc1OCCCCCCCCCCCC(=O)Nc1ccc(C(=O)Nc2ccccc2N)cc1)C(C)(C)C [PROTAC35, (2S,4R)-1-((S)-2-acetamido-3,3-dimethylbutanoyl)-N-(2-((12-((4-((2-aminophenyl)carbamoyl)phenyl)amino)-12-oxododecyl)oxy)-4-(4-methylthiazol-5-yl)benzyl)-4-hydroxypyrrolidine-2-carboxamide] | 61 | 49 | 38 | –
12 | Cc1ncsc1-c1ccc(CNC(=O)[C@@H]2C[C@@H](O)CN2C(=O)[C@@H](NC(=O)C2(F)CC2)C(C)(C)C)c(OCCCCCCCCCCCC(=O)Nc2ccc(C(=O)Nc3ccccc3N)cc2)c1 [PROTAC36, (2S,4R)-N-(2-((12-((4-((2-aminophenyl)carbamoyl)phenyl)amino)-12-oxododecyl)oxy)-4-(4-methylthiazol-5-yl)benzyl)-1-((S)-2-(1-fluorocyclopropane-1-carboxamido)-3,3-dimethylbutanoyl)-4-hydroxypyrrolidine-2-carboxamide] | 51 | 28 | 69 | –
13 | CN[C@@H](C)C(=O)N[C@H](C(=O)N1CCC[C@H]1c1nc(C(=O)c2cccc(OCCCCCCCCCCCC(=O)Nc3ccc(C(=O)Nc4ccccc4N)cc3)c2)cs1)C1CCCCC1 [PROTAC37, N-(2-aminophenyl)-4-(12-(3-(2-((S)-1-((S)-2-cyclohexyl-2-((S)-2-(methylamino)propanamido)acetyl)pyrrolidin-2-yl)thiazole-4-carbonyl)phenoxy)dodecanamido)benzamide] | 38 | 16 | 37 | –
